Measurements reported in doi:10.1101/2023.02.21.529347v1 (biorxiv, 2023).

Experiments:
Assay in all cases: apparent steady-state kinetics of F420H2-dependent alkene reduction
MSMEG_2850 [1] = target: T1, MSMEG_2850 (Mycolicibacterium smegmatis, UniProt A0QW82); conditions: co-substrate F420H2; apparent value
T1 sequence (A0QW82 1-140): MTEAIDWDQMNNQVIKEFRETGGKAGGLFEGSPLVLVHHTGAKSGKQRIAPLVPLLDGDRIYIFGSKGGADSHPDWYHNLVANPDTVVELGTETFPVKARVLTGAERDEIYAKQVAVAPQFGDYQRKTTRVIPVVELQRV

MSMEG_2850 [2] = target: T1, MSMEG_2850; assay type: biochemical; conditions: substrate inhibition constant; co-substrate F420H2
MSMEG_2027 = target: T2, MSMEG_2027 (Mycolicibacterium smegmatis, UniProt A0QU01); assay type: biochemical; conditions: substrate inhibition constant; co-substrate F420H2
T2 sequence (A0QU01 1-140): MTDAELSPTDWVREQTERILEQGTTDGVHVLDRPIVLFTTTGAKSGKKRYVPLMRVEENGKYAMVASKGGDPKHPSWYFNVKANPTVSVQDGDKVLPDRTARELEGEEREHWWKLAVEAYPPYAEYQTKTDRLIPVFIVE

| Km (MSMEG_2850 [1]) | Ki (MSMEG_2850 [2]) | Ki (MSMEG_2027) | Compound |
| --- | --- | --- | --- |
| 180 ± 30 µM | – | – | CC1=CC(=O)[C@H]2C[C@@H]1C2(C)C [9a, (1S,5S)-(-)-verbenone] |
| – | 47.9 ± 10.0 mM | 26.9 ± 11.4 mM | CC1=CC(=O)CC(C)(C)C1=O [7a, ketoisophorone] |
